US20240228512A1, “ACYCLIC OXAZEPINE COMPOUNDS COMPRISING A 6-AZA MOIETY AND USES THEREOF” (Genentech, Inc., priority 2022, published 2024)
pIC50: −log10 of the molar value.

Experiments:
[1] = system: SW620 PERK; assay: SW620 PERK assay; format: cell-based; details: Homo sapiens, SW-620, SW620, PERK
[2] = system: H1975 cells; assay: H1975 CTG proliferation assay; format: cell-based; details: Homo sapiens, NCI-H1975, H1975, CTG
[3] = system: SW620 cells; assay: SW620 3D proliferation assay (CellTiter-Glo); format: cell-based; details: Homo sapiens, SW-620, 168 h, SW620, 3D culture, 7 days, read-out: SW620 CTG IC50
Experimental: (§1) SW620 and HPAC 3D proliferation assays.
(§2) Compound potencies were assessed in proliferation assays conducted with SW620 and HPAC cell lines grown in 3D cultures. Cells were seeded into 96- or 384-well ultra-low attachment plates at 3000 or 1000 cells/well, respectively, in culture medium (RPMI-1640, 10% FBS, 2 mM L-glutamine). The plated cells were centrifuged briefly, allowed to rest for 30 minutes under ambient conditions, and cultured overnight at 37° C./5% CO2 to initiate the formation of spheroids. Compound dilutions were prepared across a range of concentrations in DMSO and added to the appropriate wells of the assay plates with a 333-fold dilution into the culture medium. The plates were further incubated for 7 days. The quantity of viable cells was assessed using CellTiter-Glo 3D Cell Viability Assay (Promega). The detection reagent penetrates the spheroids and lyses the cells. The released ATP that was detected with luciferase and a luciferase substrate to generate a luminescent readout. […] The data points were fit to a 4-parameter logistic equation to determine IC50 values.

[4] = system: HPAC cells; assay: HPAC 3D proliferation assay (CellTiter-Glo); format: cell-based; details: Homo sapiens, 168 h, 3D culture, 7 days, read-out: HPAC CTG IC50
Experimental: as §1, §2

[5] = biological target: recombinant human KRAS wild type (SOS1-mediated nucleotide exchange) (Homo sapiens (Human), UniProt P01116); assay: KRAS biochemical assay, BODIPY-GDP exchange TR-FRET (WT-GDP HTRF)
recombinant human KRAS wild type (SOS1-mediated nucleotide exchange), sequence (P01116-2 other isoform, or with tags, fused parts or gaps): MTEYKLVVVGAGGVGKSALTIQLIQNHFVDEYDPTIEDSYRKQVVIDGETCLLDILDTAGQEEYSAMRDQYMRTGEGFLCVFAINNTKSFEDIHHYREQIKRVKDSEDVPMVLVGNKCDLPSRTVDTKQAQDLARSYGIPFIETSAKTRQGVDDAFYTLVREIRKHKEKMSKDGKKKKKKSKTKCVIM
Experimental: [Worded in the source for another variant; this variant is reported under the same test.] KRAS Biochemical Assay—BODIPY-GDP Exchange TR-FRET.
Biochemical compound potencies were assessed by evaluating inhibition of SOS1-mediated nucleotide exchange in KRAS G12D. The SOS1-promoted exchange of fluorescently-labeled GDP (BOPIDY-GDP) was monitored by time-resolved fluorescence resonance energy transfer (TR-FRET). Compounds solubilized in DMSO were dispensed as concentration series into 384-well white assay plates. […] The reaction was initiated with the addition of 5 μL of 3 nM recombinant human SOS1 and 300 nM BODIPY-GDP in assay buffer. After a 60-minute incubation, the fluorescence was measured with excitation at 337 nm and emission at 490 and 520 nm. The TR-FRET ratio was determined as the fluorescence at 520 nm divided by the fluorescence at 490 nm multiplied by 10,000. […] The normalized TR-FRET results were plotted against compound concentration, and the data fit to a 4-parameter Hill equation to determine the IC50 values.

[6] = biological target: recombinant human mutant KRas G12V (SOS1-mediated nucleotide exchange) (Homo sapiens (Human), UniProt P01116, G12V); assay: KRAS biochemical assay, BODIPY-GDP exchange TR-FRET (G12V-GDP HTRF)
recombinant human mutant KRas G12V (SOS1-mediated nucleotide exchange), sequence (P01116-2 other isoform, or with tags, fused parts or gaps G12V): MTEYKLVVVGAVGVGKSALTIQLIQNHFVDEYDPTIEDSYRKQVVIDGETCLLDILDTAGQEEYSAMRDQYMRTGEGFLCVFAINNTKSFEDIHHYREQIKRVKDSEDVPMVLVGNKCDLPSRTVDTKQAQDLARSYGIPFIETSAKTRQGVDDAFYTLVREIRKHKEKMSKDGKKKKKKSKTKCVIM

SMILES | pIC50 [1] | pIC50 [2] | pIC50 [3] | pIC50 [4] | pIC50 [5] | pIC50 [6]
Cc1c(F)c(N)cc(-c2nc3c4c(nc(OC[C@@H]5CC(F)(F)CN5C)nc4c2F)N([C@H](C)c2cccnc2N)CCO3)c1C(F)(F)F [Example 20, 3-((R)-1-(5-(5-amino-4-fluoro-3-methyl-2-(trifluoromethyl)phenyl)-2-(((S)-4,4-difluoro-1-methylpyrrolidin-2-yl)methoxy)-4-fluoro-8,9-dihydro-10H-7-oxa-1,3,6,10-tetraazacyclohepta[de]naphthalen-10-yl)ethyl)pyridin-2-amine] | 8.07 | 6.38 | 7.52 | 6.32 |  | 
C#Cc1cccc2cc(O)cc(-c3nc4c5c(nc(OC[C@@]67CCCN6C[C@H](F)C7)nc5c3F)N([C@H](C)c3nccnc3N)CCO4)c12 [Example 11, 4-(10-((R)-1-(3-aminopyrazin-2-yl)ethyl)-4-fluoro-2-(((2R,7aS)-2-fluorotetrahydro-1H-pyrrolizin-7a(5H)-yl)methoxy)-9,10-dihydro-8H-7-oxa-1,3,6,10-tetraazacyclohepta[de]naphthalen-5-yl)-5-ethynyinaphthalen-2-ol] | 8.72 | 8.59 | 8.27 | 6.76 |  | 
Cc1c(F)c(N)cc(-c2nc3c4c(nc(OC[C@@H]5CC(F)(F)CN5C)nc4c2F)N([C@H](C)c2nccnc2N)CCO3)c1C(F)(F)F [Example 8, 3-((R)-1-(5-(5-amino-4-fluoro-3-methyl-2-(trifluoromethyl)phenyl)-2-(((S)-4,4-difluoro-1-methylpyrrolidin-2-yl)methoxy)-4-fluoro-8,9-dihydro-10H-7-oxa-1,3,6,10-tetraazacyclohepta[de]naphthalen-10-yl)ethyl)pyrazin-2-amine] | 6.86 | 6.26 | 6.34 | 5.70 |  | 
Cc1c(F)c(N)cc(-c2nc3c4c(nc(OC[C@@H]5CC[C@H]6COCCN65)nc4c2F)N([C@H](C)c2nccnc2N)CCO3)c1C(F)(F)F [Example 10, 3-((R)-1-(5-(5-amino-4-fluoro-3-methyl-2-(trifluoromethyl)phenyl)-4-fluoro-2-(((6S,8aS)-hexahydro-1H-pyrrolo[2,1-c][1,4]oxazin-6-yl)methoxy)-8,9-dihydro-10H-7-oxa-1,3,6,10-tetraazacyclohepta[de]naphthalen-10-yl)ethyl)pyrazin-2-amine] | 7.52 | 7.27 | 6.94 | 6.36 |  | 
C[C@H](c1cccnc1N)N1CCOc2nc(-c3c(C(F)(F)F)cc(F)c(N)c3F)c(F)c3nc(OC[C@@]45CCCN4C[C@H](F)C5)nc1c23 [Example 621, 3-((1R)-1-(5-(3-amino-2,4-difluoro-6-(trifluoromethyl)phenyl)-4-fluoro-2-(((2R,7aS)-2-fluorotetrahydro-1H-pyrrolizin-7a(5H)-yl)methoxy)-8,9-dihydro-10H-7-oxa-1,3,6,10-tetraazacyclohepta[de]naphthalen-10-yl)ethyl)pyridin-2-amine] | 7.66 | 7.01 | 7.51 | 6.47 |  | 
Cc1nc(N)c(Cl)c(-c2nc3c4c(nc(OC[C@@]56CCCN5C[C@H](F)C6)nc4c2F)N([C@H](C)c2cccnc2N)CCO3)c1C(F)(F)F (single isomer, unassigned) [Example 601b] |  |  |  |  | 8.50 | 9.12
Cc1cc(N)c(F)c(-c2nc3c4c(nc(OC[C@@]56CCCN5C[C@H](F)C6)nc4c2F)N([C@H](C)c2nccnc2N)CCO3)c1C(F)(F)F [Example 23, 3-((1R)-1-(5-(3-amino-2-fluoro-5-methyl-6-(trifluoromethyl)phenyl)-4-fluoro-2-(((2R,7aS)-2-fluorotetrahydro-1H-pyrrolizin-7a(5H)-yl)methoxy)-8,9-dihydro-10H-7-oxa-1,3,6,10-tetraazacyclohepta[de]naphthalen-10-yl)ethyl)pyrazin-2-amine] | 8.13 | 7.49 | 7.50 | 7.04 |  | 
C[C@H](c1cccnc1N)N1CCOc2nc(-c3cncc4cccc(Cl)c34)c(F)c3nc(OC[C@@]45CCCN4C[C@H](F)C5)nc1c23 [Example 19, 3-((R)-1-(5-(5-chloroisoquinolin-4-yl)-4-fluoro-2-(((2R,7aS)-2-fluorotetrahydro-1H-pyrrolizin-7a(5H)-yl)methoxy)-8,9-dihydro-10H-7-oxa-1,3,6,10-tetraazacyclohepta[de]naphthalen-10-yl)ethyl)pyridin-2-amine] | 6.95 |  |  |  | 8.16 | 9.07
C[C@H](c1cccnc1N)N1CCOc2nc(-c3c(F)ccc4cnn(C)c34)c(F)c3nc(OC[C@@]45CCCN4C[C@H](F)C5)nc1c23 [Example 634, 3-((1R)-1-(4-fluoro-5-(6-fluoro-1-methyl-1H-indazol-7-yl)-2-(((2R,7aS)-2-fluorotetrahydro-1H-pyrrolizin-7a(5H)-yl)methoxy)-8,9-dihydro-10H-7-oxa-1,3,6,10-tetraazacyclohepta[de]naphthalen-10-yl)ethyl)pyridin-2-amine] | 7.07 | 5.44 | 6.21 | 5.76 |  | 
Cc1c(F)c(N)cc(-c2nc3c4c(nc(OC[C@@]56CCCN5C[C@H](F)C6)nc4c2F)N([C@H](C)c2cccnc2N)CCO3)c1CC(F)F [Example 612, 3-((R)-1-(5-(5-amino-2-(2,2-difluoroethyl)-4-fluoro-3-methylphenyl)-4-fluoro-2-(((2R,7aS)-2-fluorotetrahydro-1H-pyrrolizin-7a(5H)-yl)methoxy)-8,9-dihydro-10H-7-oxa-1,3,6,10-tetraazacyclohepta[de]naphthalen-10-yl)ethyl)pyridin-2-amine] | 7.81 | 5.60 | 7.55 | 6.44 |  | 
Cc1c(F)c(N)c(F)c(-c2nc3c4c(nc(OC[C@@H]5CCCN5C)nc4c2F)N([C@H](C)c2cccnc2N)CCO3)c1C(F)(F)F [Example 624, 3-((1R)-1-(5-(3-amino-2,4-difluoro-5-methyl-6-(trifluoromethyl)phenyl)-4-fluoro-2-(((S)-1-methylpyrrolidin-2-yl)methoxy)-8,9-dihydro-10H-7-oxa-1,3,6,10-tetraazacyclohepta[de]naphthalen-10-yl)ethyl)pyridin-2-amine] | 8.25 | 6.44 | 7.94 | 7.15 |  | 
Cc1c(F)c(N)c(F)c(-c2nc3c4c(nc(OC[C@@]56CCCN5C[C@H](F)C6)nc4c2F)N([C@H](C)c2nccnc2N)CCO3)c1C(F)(F)F [Example 13, 3-((1R)-1-(5-(3-amino-2,4-difluoro-5-methyl-6-(trifluoromethyl)phenyl)-4-fluoro-2-(((2R,7aS)-2-fluorotetrahydro-1H-pyrrolizin-7a(5H)-yl)methoxy)-8,9-dihydro-10H-7-oxa-1,3,6,10-tetraazacyclohepta[de]naphthalen-10-yl)ethyl)pyrazin-2-amine] |  | 7.13 | 7.57 |  |  | 
Cc1c(F)c(N)cc(-c2nc3c4c(nc(OC[C@@]56CCCN5C[C@H](F)C6)nc4c2Cl)N([C@H](C)c2cccnc2N)CCO3)c1C(F)(F)F [Example 32, 3-((R)-1-(5-(5-amino-4-fluoro-3-methyl-2-(trifluoromethyl)phenyl)-4-chloro-2-(((2R,7aS)-2-fluorotetrahydro-1H-pyrrolizin-7a(5H)-yl)methoxy)-8,9-dihydro-10H-7-oxa-1,3,6,10-tetraazacyclohepta[de]naphthalen-10-yl)ethyl)pyridin-2-amine] | 8.61 | 8.15 | 8.65 | 7.73 |  | 
Cc1nc(N)c(Cl)c(-c2nc3c4c(nc(OC[C@@]56CCCN5C[C@H](F)C6)nc4c2F)N([C@H](C)c2cccnc2N)CCO3)c1C(F)(F)F (single isomer, unassigned) [Example 601a] |  | 7.32 | 8.21 |  | 9.59 | 10.15
Cc1c(F)c(N)cc(-c2nc3c4c(nc(OC[C@@]56CCCN5C[C@H](F)C6)nc4c2F)N([C@H](C)c2nccnc2N)CCO3)c1C(F)(F)F [Example 9, 3-((R)-1-(5-(5-amino-4-fluoro-3-methyl-2-(trifluoromethyl)phenyl)-4-fluoro-2-(((2R,7aS)-2-fluorotetrahydro-1H-pyrrolizin-7a(5H)-yl)methoxy)-8,9-dihydro-10H-7-oxa-1,3,6,10-tetraazacyclohepta[de]naphthalen-10-yl)ethyl)pyrazin-2-amine] | 7.71 | 7.95 | 7.58 | 7.13 |  | 
